{"source": "paper PMC10075506", "about": "“Synthesis and biological evaluation of flavonoid-based IP6K2 inhibitors” (Journal of Enzyme Inhibition and Medicinal Chemistry, 2023)", "key": {"human IP6K3": {"target": "T1, human IP6K3 (Homo sapiens, UniProt Q96PC2)", "T1 construct": "made in house; host or cells: Sf9 insect cells (baculovirus, pFASTBAC1)", "T1 sequence (Q96PC2 whole entry)": "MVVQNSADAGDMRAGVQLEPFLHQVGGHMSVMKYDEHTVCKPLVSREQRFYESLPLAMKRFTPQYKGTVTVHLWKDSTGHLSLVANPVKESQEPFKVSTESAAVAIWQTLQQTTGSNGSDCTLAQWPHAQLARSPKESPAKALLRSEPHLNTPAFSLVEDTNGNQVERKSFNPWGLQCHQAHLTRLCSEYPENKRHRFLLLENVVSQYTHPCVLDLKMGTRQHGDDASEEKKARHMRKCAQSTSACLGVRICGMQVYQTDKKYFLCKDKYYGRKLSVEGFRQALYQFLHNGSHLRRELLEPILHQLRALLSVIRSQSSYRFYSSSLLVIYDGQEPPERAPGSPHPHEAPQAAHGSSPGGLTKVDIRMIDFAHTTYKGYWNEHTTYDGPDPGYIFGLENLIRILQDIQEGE", "test": "ADP-Glo kinase assay, IP6K3 (Liao et al.'s conditions)", "assay_type": "biochemical", "details": "for IC50: IP6K3 120 nM, ATP 1 mM", "method": "(§1) Inhibition activity of the synthesised compounds against IP6K2 was assessed using ADP-Glo™ Kinase Assay (Promega). Kinase reaction mixtures were first shaking-incubated with individual drugs (diluted in DMSO) for pre-incubation at RT for 15 min, and then ATP was added (final 10 µM) to initiate the reaction. 20 ng of recombinant human IP6K2 protein was used per 15 µL of IP6K2 reaction mixture (50 mM Tris-HCl, pH 6.8, 10 mM MgCl2, 2.5 mM DTT, 0.02% Triton X-100, 10 µM IP6). […] Each detection set was prepared on 96-well (25 µL kinase reaction) as duplicates. Resulting enzyme activity was calculated as following; Activity (%) = ([ADPexperimental]/[ADPDMSO])×100. For IC50 estimation of compounds, kinase assay was prepared on 384-well plates (20 ng of recombinant human IP6K2 protein was used per 5 µL kinase reaction mixture) as duplicates. The final concentrations for IP6K2, IP6, and ATP were 80 nM, 10 μM, and 10 μM, respectively. […] IP6K1 and IP6K3 assays were performed by Liao et al.’s conditions.[25] The final concentrations for IP6K1, IP6, and ATP were 60 nM, 100 μM, and 1 mM, respectively. […] All statistical analyses including IC50 estimation was performed using Prism 7 or Prism 9 (Graphpad Software).\n(§2) Full-length human IP6K1, IP6K2, or IP6K3 cDNA was subcloned into pFASTBAC1 plasmid (Gibco) with an N-terminal FLAG epitope sequence, and baculovirus was generated according to the manufacturer’s instructions. Sf9 insect cells were infected with baculovirus and incubated for 72 h. The cells were resuspended in lysis buffer [20 mM Tris–HCl (pH 7.9), 500 mM NaCl, 4 mM MgCl2, 0.4 mM EDTA, 2 mM DTT, 20% glycerol, 1 mM PMSF, and protease inhibitor cocktail (Roche)] and then disrupted with a Dounce homogeniser (pestle A, 3 series of 10 strokes with 10 min interval)."}, "in vitro": {"test": "in vitro", "details": "PAMPA", "from_the_text": "Supporting Information Table 1.\nartificial membrane permeability assay (PAMPA) as described previously (reference). The apparent permeability\n(ranitidine, nadolol, hydrochlorothiazide).\nData are mean ± S.D. (n=3).\nReference: Oh, M.H., Lee, H.J., Jo, S.H., et al. Development of Cassette PAMPA for Permeability Screening. Biol Pharm"}, "human IP6K1": {"target": "T2, human IP6K1 (Homo sapiens, UniProt Q92551)", "T2 construct": "made in house; host or cells: Sf9 insect cells (baculovirus, pFASTBAC1)", "T2 sequence (Q92551 whole entry)": "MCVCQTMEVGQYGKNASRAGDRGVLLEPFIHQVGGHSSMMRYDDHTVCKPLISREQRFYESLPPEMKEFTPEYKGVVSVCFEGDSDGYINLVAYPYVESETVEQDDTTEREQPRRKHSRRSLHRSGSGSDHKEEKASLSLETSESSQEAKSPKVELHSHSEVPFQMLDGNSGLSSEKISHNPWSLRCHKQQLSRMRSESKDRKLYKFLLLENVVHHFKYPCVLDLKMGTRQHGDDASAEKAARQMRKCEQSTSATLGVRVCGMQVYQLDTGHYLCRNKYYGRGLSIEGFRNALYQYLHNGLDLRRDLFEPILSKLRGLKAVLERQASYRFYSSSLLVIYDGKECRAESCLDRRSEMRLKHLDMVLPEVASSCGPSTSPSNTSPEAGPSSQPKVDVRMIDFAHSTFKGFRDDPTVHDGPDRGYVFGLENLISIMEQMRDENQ", "test": "ADP-Glo kinase assay, IP6K1 (Liao et al.'s conditions)", "assay_type": "biochemical", "details": "for IC50: IP6K1 60 nM, ATP 1 mM", "method": "as §1, §2"}, "recombinant human IP6K2": {"target": "T3, recombinant human IP6K2 (Homo sapiens, UniProt Q9UHH9)", "T3 construct": "made in house; host or cells: Sf9 insect cells (baculovirus, pFASTBAC1)", "T3 sequence (Q9UHH9 1-426)": "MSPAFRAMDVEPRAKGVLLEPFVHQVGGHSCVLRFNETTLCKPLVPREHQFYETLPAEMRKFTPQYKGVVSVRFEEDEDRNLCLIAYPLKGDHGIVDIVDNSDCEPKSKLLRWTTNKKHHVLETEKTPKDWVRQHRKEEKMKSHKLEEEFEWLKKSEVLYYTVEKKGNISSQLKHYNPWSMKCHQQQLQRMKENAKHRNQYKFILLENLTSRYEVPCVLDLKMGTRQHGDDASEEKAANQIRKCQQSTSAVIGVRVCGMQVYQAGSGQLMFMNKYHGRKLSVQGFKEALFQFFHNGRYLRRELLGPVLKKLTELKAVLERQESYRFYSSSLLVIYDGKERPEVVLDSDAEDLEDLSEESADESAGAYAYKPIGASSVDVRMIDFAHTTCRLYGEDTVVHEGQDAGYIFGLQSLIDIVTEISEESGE", "test": "ADP-Glo kinase assay, IP6K2", "assay_type": "biochemical", "method": "as §1, §2"}, "[1]": {"tested_on": "IP7 synthesis in human colorectal cell line (HCT116)", "test": "cellular IP7 synthesis in HCT116, HPLC of [3H]inositol-labelled inositol phosphates", "assay_type": "cell-based", "details": "HCT116, compound 10 μM for 6 h"}, "hIP6K2": {"tested_on": "hIP6K2", "details": "read-out: IC50 value of quercetin (IP6K2), reported; different IP6K2 enzyme concentration and reaction temperature; cited from earlier work"}, "[2]": {"details": "final concentration of ATP and IP6 adjusted to 10 μM"}}}
{"smiles": "O=C(O)c1cccc(-c2oc3cc(O)c(O)cc3c(=O)c2O)c1", "note": "[Compound 20s, 3–(3,6,7-Trihydroxy-4-oxo-4H-chromen-2-yl)benzoic acid]", "values": [{"measurement": "IC50", "setting": "human IP6K3; IP6 100 µM", "value": 3.56, "unit": "µM"}, {"measurement": "IP6K3 /IP6K2 (IC50 ratio)", "setting": "human IP6K3; IP6K3 at ATP 1 mM, IP6 100 µM, IP6K2 at ATP 10 µM, IP6 10 µM", "value": 6.47}, {"measurement": "IC50 ratio of IP6K3/IP6K2", "setting": "human IP6K3; [2]", "value": 2.32, "unit": "fold"}, {"measurement": "Papp", "setting": "in vitro", "value": "< 0.18", "unit": "×10⁻⁶ cm/s"}, {"measurement": "Permeability class", "setting": "in vitro", "value": "Low"}, {"measurement": "IC50", "setting": "human IP6K1; IP6 100 µM", "value": 2870, "unit": "nM"}, {"measurement": "IP6K1 /IP6K2 (IC50 ratio)", "setting": "human IP6K1; IP6K1 at ATP 1 mM, IP6 100 µM, IP6K2 at ATP 10 µM, IP6 10 µM", "value": 5.22}, {"measurement": "IC50 ratio of IP6K1/IP6K2", "setting": "human IP6K1; [2]", "value": 4.65, "unit": "fold"}, {"measurement": "IC50", "setting": "recombinant human IP6K2", "value": "550 ± 1", "unit": "nM"}, {"measurement": "fold more potent IP6K2 inhibition than quercetin", "setting": "recombinant human IP6K2; IC50 compared with quercetin", "value": 5, "unit": "fold"}, {"measurement": "fold more potent than compound 20r (IP6K2)", "setting": "recombinant human IP6K2; meta -COOH versus para -COOH", "value": "approximately 7 fold"}, {"measurement": "cellular IP7 levels", "setting": "[1]", "value": "failed to reduce cellular IP7 levels"}]}
{"smiles": "O=c1c(O)c(-c2ccc(O)c(O)c2)oc2cc(O)cc(O)c12", "note": "[Quercetin, 3,3′,4′,5,7-pentahydroxylflavone]", "values": [{"measurement": "IC50", "setting": "human IP6K3; IP6 100 µM", "value": 4.35, "unit": "µM"}, {"measurement": "Papp", "setting": "in vitro", "value": 0.54, "unit": "×10⁻⁶ cm/s"}, {"measurement": "Permeability class", "setting": "in vitro", "value": "Low"}, {"measurement": "IC50", "setting": "human IP6K1; IP6 100 µM", "value": 1100, "unit": "nM"}, {"measurement": "IC50", "setting": "hIP6K2", "value": "[…]"}]}
